Reference: patent US20230414598A1, “COMBINATION THERAPIES WITH CBL-B INHIBITOR COMPOUNDS AND ANTIEMETIC AGENTS” (NURIX THERAPEUTICS, INC., priority 2022, published 2023)

Key:
Type in all cases: in vivo, human
[1] = test system: patient's nausea and vomiting symptoms; experiment: Antiemetic given prior to compound 23: control of nausea and vomiting; details: for effect on emetic symptoms (nausea and vomiting): single oral dose 30-60 minutes prior to compound 23 dosing
Experimental: Prior to administration of compound 23, the antiemetic was administered as outlined below. Example 1: ondansetron via IV: 8 mg or 0.15 mg/kg as single dose; maximum dose of 16 mg/dose. Example 1B: ondansetron via oral: 8 mg up to twice daily. In this example, the patient was weaned off ondansetron via oral after two weeks. […] Example 2: granisetron via IV: 1 mg or 10 mcg/kg as a single dose. Example 2B granisetron via oral: 2 mg as a single dose. In this example, the patient was weaned off oral granisetron after four weeks. […] Example 2C: granisetron via SUBQ: 10 mg as single dose. Example 2D: granisetron via transdermal: apply one patch. Example 5: metoclopramide, a dopamine antagonist, via oral: 10 mg 30 minutes prior to the adminstration of compound 23. […] Example 6: diphenhydramine, a histamine antagonist, via oral or parental: 25 mg or 50 mg 30 minutes prior to the adminstration of compound 23.

[2] = Adverse events after oral administration of compound 23 to patients
Experimental: The nausea and vomiting symptoms were mitigated when a single oral (versus other routes of adminstration such as intravenous) dose of 5-HT3 antagonist was administered 30-60 minutes prior to the compound 23 dosing. […] The adverse events (e.g., symptoms include nausea, vomiting, headache, hypotension, tachycardia, bradycardia, among others) were resolved within 24 hours prior to the next dose. The nausea and vomiting were controlled by serotonin (5-HT3) receptor blockers, ondansetron and granisetron.

[3] = Pharmacokinetic analysis of compound 23 plasma concentrations in patients (LC-MS/MS, non-compartmental); details: for AUC(0-t) / Cmax / half-life / Tmax: human, plasma; for AUC(0-t) / Cmax: geometric mean; for half-life: mean; for Tmax: median
Experimental: Patients were administered doses of compound 23 ranging from 5 to 50 mg once daily. Plasma concentrations of compound 23 were quantified using acetonitrile precipitation and LC-MS/MS. The peak area of the product ion of the analyte was measured against the peak area of the product ion of the stable label internal standard. A calibration curve spanning the curve range and containing at least six conentrations in duplicate was used to quantify the analyte concentration. The retention times of the analyte and internal standard are approximately 1.5 minutes. PK analyses were donucted using non-compartmental analyses to obtain PK parameters. […] Patients were administered doses of compound 23 ranging from 5 to 50 mg once daily. Plasma concentrations of compound 23 were quantified using acetonitrile precipitation and LC-MS/MS. The peak area of the product ion of the analyte was measured against the peak area of the product ion of the stable label internal standard. A calibration curve spanning the curve range and containing at least six conentrations in duplicate was used to quantify the analyte concentration. The retention times of the analyte and internal standard are approximately 1.5 minutes. PK analyses were donucted using non-compartmental analyses to obtain PK parameters. […] PK data are provided below (Cmax and AUC0-last are presented as geometric mean (geometric %C V); Tmax is presented as median (range); t1/2 is presented as mean (% CV).

5-HT = 5-HT levels in the local gut after compound 23; details: after administration of compound 23
[4] = 25 mg and 50 mg single daily dose administered fasting
[5] = Cycle 1 Day 1, 5 mg once daily (n = 1)
[6] = Cycle 1 Day 1, 15 mg once daily (n = 9)
[7] = Cycle 1 Day 1, 25 mg once daily (n = 6)
[8] = Cycle 1 Day 1, 50 mg once daily (n = 2)

CN(C)CCOC(c1ccccc1)c1ccccc1 [diphenhydramine]
control of nausea and vomiting symptoms ([1]; oral or parenteral 25 mg or 50 mg 30 minutes prior to compound 23): did not control the patient's nausea and vomiting sympotms

Cc1nccn1CC1CCc2c(c3ccccc3n2C)C1=O (stereo not shown) [ondansetron]
effect on emetic symptoms (nausea and vomiting) [1]: reduced emetic symptoms

CCN(CC)CCNC(=O)c1cc(Cl)c(N)cc1OC [metoclopramide]
control of nausea and vomiting symptoms ([1]; oral 10 mg 30 minutes prior to compound 23): did not control the patient's nausea and vomiting sympotms

CN1C2CCCC1CC(NC(=O)c1nn(C)c3ccccc13)C2 (stereo not shown) [granisetron]
effect on emetic symptoms (nausea and vomiting) [1]: reduced emetic symptoms

C[C@H]1CCCN(Cc2cc3c(c(C(F)(F)F)c2)CN(c2cccc([C@]4(c5nncn5C)C[C@@H](C)C4)c2)C3=O)C1 [Compound 23]
need for antiemetic after weaning ([1]; daily compound 23 after patient weaned off oral granisetron after four weeks): without the need for granisetron
need for antiemetic after weaning ([1]; daily compound 23 after patient weaned off oral ondansetron after two weeks): without the need for ondanesetron
adverse events induced [2, 4]: signficant events of nausea, vomiting, synocope, tachycardia, hypotension, and bradycardia
time to onset of adverse events [2, 4]: ≤ 2 h
time to resolution of adverse events ([2]; nausea, vomiting, headache, hypotension, tachycardia, bradycardia, prior to the next dose): ≤ 24 h
accumulation upon repeat daily dosing ([3]; 5 to 50 mg once daily): no accumulation
dose proportionality of exposures ([3]; 5 to 50 mg once daily): dose-proportional increase in exposures
AUC(0-t) [3, 5]: 26.2 ng·h/mL
Cmax [3, 5]: 4.35 ng/mL
half-life [3, 5]: 7.72 h
Tmax [3, 5]: 2 h
AUC(0-t) [3, 6]: 129 ng·h/mL
Cmax [3, 6]: 16.2 ng/mL
half-life [3, 6]: 7.14 h
Tmax [3, 6]: 2 h
AUC(0-t) [3, 7]: 201 ng·h/mL
Cmax [3, 7]: 30.1 ng/mL
half-life [3, 7]: 6.82 h
Tmax [3, 7]: 1.5 h
AUC(0-t) [3, 8]: 502 ng·h/mL
Cmax [3, 8]: 79.2 ng/mL
half-life [3, 8]: 5.88 h
Tmax [3, 8]: 2.5 h
levels of 5-HT in the local gut (5-HT): increased levels of 5-HT in the local gut
